Data as given in patent US8673870B2 (priority 2002, dated 2014).
Values joined by “and” are separate entries in the source; they are usually repeats but may differ in a detail not shown here. Equal values may be shown once.

Key:
APL cells = tested on: APL cells; design: species or system mice; settings: mouse, in vivo
[1] = tested on: spleen cells stimulated with irradiated APL cells; assay: Cytokine release assay (Th1/Th2 cytometric bead array); type: cell-based, mice
Procedure: Long term survivors (post day 300 illustrated in FIG. 2B) were sacrificed and tested for proliferation and cytokine release. Briefly, 5×10^5 responders (spleen cells from FVB/N injected with APL cells and treated with ATRA+PML-RARα-FrC or ScFvBCL1-FrC) were plated in each well with 200 μl of media consisting of RPMI 1640, 10% FCS and 0.5% […]. Spleen cells from healthy mice treated with ATRA. Stimulators (spleen cells from FVB/N, APL or BALB/c) were irradiated with 25 Gy and 1×10^6 cells were added to each well. After 24, 48 and 72 hours of incubation cells were assayed for ^3H-thymidine incorporation and supernatants were harvested for cytokine release assays. Cultures were set up in duplicate.
Cytokine release was measured using a mouse Th1/Th2 cytokine cytometric bead array kit according to the manufacturer's protocols (Becton, Dickinson, Pharmingen, San Jose, Calif.). This kit measures cytokines IL-2, IL-4, IL-5, IFN-γ and TNF-α. Long-term survivors of the mice from the protocol illustrated in FIG. 8, were sacrificed and spleen cells were cultured as described above. Briefly, 50 μl of supernatant was incubated with 50 μl of the mixed capture beads and 50 μl of the mouse Th1/Th2 PE detection reagent for 2 hours and analyzed on a FACSCalibur cytometer. Analysis was undertaken using the BD CBA (Becton Dickinson, Pharmingen) and Cell Quest software.

[2] = tested on: Recombinant human RARα protein (rhRARα); design: species or system mice; settings: in vivo
fragment C = settings: in vivo

## ScFvBCL1-FrC: ScFv construct of King et al 1998 from a lymphoma patient fused in frame to BCL1 leader and fragment C (SEQ ID NO:11)
APL cells
  Lifespan, in words: extended lifespan
[1]; with ATRA, approximately one year from injection of APL cells
  TNFα: increases in TNFα

## CC1=C(/C=C/C(C)=C/C=C/C(C)=C/C(=O)O)C(C)(C)CCC1 [ATRA, all-trans retinoic acid]
APL cells
  Survival versus comparison arms (Kaplan Meier), in words: all of the mice relapse and die
  Survival: No. mice/total: 24/24 (100%) and 5/24 (21%) and 0/24 (0%)
APL cells; sc
  Time to relapse and death post transplant: 6-12 weeks
[2]
  Antibodies against RARα detected by ELISA, in words: Significant levels of antibodies against RARα were detected
  RARα Ab positive (%): 7/12 (58%) and 4/5 (80%)
  RARα Ab positive: mice with detectable antibodies/mice alive: 0/12 and 7/12 (58%) and 4/5 (80%)
Fragment C
  Antibody response to fragment C (mice responding/mice tested): no antibodies to fragment C was detected
[1]; 48 hours of culture, irradiated APL cells as stimulators, ATRA alone = spleen cells from healthy mice
  IFN-γ release: 52 pg/mL
